{"source": "ChEMBL document CHEMBL5465560", "about": "“Selectivity Literature for EUbOPEN Chemogenomic Library” (2024)", "key": {"[1]": {"target": "Fibroblast growth factor receptor 3 (Homo sapiens, UniProt P22607)", "sequence (P22607 23-806 limits assumed)": "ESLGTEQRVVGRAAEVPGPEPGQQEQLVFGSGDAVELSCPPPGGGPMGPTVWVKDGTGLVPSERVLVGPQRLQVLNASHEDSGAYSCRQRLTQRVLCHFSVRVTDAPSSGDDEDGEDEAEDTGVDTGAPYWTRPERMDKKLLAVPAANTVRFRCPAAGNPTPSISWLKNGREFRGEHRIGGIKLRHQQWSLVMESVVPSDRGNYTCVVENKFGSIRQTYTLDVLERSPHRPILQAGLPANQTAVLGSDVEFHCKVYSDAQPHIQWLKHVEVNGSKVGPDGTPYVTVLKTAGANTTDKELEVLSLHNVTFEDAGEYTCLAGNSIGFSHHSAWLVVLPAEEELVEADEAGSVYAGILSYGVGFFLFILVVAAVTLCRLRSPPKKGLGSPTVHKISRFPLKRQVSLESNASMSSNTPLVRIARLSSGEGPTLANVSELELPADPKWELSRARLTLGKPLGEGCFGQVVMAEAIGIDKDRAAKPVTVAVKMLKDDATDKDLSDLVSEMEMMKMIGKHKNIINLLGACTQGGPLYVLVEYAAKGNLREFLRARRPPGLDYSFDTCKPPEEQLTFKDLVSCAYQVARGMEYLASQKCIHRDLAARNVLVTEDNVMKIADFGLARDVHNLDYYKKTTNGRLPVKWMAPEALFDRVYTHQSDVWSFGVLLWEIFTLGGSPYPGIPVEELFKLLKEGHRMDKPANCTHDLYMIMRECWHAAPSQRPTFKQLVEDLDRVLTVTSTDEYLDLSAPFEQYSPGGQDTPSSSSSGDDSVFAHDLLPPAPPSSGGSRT", "experiment": "(§1) Selectivity interaction (KinomeScan (DiscoverX)) EUB0001079a FGFR3", "details": "at 1 µM"}, "[2]": {"test_system": "Fibroblast growth factor receptor 3 (Homo sapiens), P22607 [G697C]", "sequence (P22607 whole entry G697C)": "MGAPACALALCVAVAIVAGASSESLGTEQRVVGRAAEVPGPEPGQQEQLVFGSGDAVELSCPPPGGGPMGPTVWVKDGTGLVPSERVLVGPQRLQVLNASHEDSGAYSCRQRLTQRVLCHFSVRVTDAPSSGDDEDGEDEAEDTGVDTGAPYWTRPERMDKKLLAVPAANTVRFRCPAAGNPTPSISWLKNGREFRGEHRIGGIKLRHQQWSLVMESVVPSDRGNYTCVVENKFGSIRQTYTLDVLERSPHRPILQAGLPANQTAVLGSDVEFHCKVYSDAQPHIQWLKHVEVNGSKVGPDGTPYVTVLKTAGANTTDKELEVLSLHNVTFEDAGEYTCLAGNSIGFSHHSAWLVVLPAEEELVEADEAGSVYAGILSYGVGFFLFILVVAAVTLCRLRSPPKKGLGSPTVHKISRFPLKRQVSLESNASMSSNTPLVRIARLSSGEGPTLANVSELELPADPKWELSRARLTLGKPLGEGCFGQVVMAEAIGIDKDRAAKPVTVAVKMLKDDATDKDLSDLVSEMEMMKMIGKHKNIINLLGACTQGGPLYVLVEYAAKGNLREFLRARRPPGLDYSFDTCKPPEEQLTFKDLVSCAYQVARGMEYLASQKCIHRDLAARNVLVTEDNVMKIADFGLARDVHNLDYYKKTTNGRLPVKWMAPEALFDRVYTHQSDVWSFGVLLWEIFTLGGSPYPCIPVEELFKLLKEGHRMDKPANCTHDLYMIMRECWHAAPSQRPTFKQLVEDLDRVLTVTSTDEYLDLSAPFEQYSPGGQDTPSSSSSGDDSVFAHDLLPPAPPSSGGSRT", "experiment": "as §1", "details": "at 1 µM"}, "[3]": {"target": "Leucine-rich repeat serine/threonine-protein kinase 2 (Homo sapiens, UniProt Q5S007)", "experiment": "Selectivity interaction (SelectScreen Kinase Profiling (Thermo Fisher Scientific)) EUB0001558a LRRK2", "details": "at 1 µM"}, "[4]": {"target": "Serine/threonine-protein kinase 10 (Homo sapiens) (UniProt O94804)", "sequence (O94804 whole entry, looked up)": "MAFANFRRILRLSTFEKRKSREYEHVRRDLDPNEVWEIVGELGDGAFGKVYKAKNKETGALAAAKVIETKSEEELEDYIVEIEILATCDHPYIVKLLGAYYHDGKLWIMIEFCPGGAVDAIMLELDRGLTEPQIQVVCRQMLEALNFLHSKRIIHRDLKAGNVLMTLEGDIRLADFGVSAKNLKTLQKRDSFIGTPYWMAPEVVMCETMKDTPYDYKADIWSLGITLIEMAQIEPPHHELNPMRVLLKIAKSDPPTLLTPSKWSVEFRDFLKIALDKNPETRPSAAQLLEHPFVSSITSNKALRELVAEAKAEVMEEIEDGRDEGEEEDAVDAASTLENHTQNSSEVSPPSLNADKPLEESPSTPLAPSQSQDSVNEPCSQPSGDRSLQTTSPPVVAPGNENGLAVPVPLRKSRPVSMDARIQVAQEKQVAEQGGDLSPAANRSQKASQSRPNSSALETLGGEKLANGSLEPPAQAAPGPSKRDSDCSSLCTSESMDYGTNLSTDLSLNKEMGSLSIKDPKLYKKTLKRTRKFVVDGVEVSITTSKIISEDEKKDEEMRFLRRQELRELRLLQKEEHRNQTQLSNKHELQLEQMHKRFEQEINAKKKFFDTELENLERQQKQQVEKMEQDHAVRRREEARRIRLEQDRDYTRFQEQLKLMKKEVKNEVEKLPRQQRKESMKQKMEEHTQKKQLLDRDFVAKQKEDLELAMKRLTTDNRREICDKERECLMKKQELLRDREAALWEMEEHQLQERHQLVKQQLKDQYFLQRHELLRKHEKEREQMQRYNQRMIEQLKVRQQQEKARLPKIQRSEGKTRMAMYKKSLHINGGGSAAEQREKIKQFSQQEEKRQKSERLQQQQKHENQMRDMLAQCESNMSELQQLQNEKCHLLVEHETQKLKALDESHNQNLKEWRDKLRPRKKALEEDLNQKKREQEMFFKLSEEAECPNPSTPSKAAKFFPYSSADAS", "experiment": "Selectivity interaction (ActivX KiNativ screen (kinase selectivity in THP-1 cell lysates)) EUB0000639a STK10", "type": "subcellular", "details": "lysate, at 5 µM"}, "[5]": {"target": "T1, Mitogen-activated protein kinase kinase kinase 2 (Homo sapiens) (UniProt Q9Y2U5)", "T1 sequence (whole entry)": "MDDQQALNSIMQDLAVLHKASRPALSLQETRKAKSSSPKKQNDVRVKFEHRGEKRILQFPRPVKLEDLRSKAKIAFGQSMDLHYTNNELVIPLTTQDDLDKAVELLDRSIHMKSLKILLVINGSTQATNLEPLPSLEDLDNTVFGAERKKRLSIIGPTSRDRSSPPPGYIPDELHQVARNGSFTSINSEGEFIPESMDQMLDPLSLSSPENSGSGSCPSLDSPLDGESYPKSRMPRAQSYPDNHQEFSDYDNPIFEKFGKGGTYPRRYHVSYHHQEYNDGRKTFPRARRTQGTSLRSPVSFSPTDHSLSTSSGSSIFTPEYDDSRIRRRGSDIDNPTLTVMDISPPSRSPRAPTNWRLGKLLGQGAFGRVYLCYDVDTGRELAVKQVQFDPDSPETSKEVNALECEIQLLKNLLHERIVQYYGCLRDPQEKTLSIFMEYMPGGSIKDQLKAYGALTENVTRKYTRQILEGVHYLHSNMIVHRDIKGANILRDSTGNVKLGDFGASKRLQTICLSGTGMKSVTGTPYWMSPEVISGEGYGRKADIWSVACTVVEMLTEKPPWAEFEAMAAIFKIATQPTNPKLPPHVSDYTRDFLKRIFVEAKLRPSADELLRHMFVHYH", "experiment": "Selectivity interaction (KinomeScan (DiscoverX)) EUB0000229b MAP3K2", "details": "at 10 µM"}, "[6]": {"target": "Casein kinase II subunit alpha (Homo sapiens, UniProt P68400)", "sequence (P68400 whole entry, looked up)": "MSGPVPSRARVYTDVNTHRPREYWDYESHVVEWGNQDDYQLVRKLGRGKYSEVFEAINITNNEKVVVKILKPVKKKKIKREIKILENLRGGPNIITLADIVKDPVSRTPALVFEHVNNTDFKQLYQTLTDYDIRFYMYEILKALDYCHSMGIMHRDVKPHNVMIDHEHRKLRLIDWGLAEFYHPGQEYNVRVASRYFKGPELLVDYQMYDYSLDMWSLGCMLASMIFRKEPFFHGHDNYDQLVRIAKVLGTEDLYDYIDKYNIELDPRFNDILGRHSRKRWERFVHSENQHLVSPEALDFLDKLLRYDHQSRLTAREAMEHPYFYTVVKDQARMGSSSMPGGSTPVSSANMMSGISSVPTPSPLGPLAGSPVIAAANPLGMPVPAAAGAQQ", "experiment": "Selectivity interaction (KinomeScan (DiscoverX)) EUB0001049a CSNK2A1", "details": "at 1 µM"}, "[7]": {"target": "T2, Serine/threonine-protein kinase MAK (Homo sapiens) (UniProt P20794)", "T2 sequence (whole entry)": "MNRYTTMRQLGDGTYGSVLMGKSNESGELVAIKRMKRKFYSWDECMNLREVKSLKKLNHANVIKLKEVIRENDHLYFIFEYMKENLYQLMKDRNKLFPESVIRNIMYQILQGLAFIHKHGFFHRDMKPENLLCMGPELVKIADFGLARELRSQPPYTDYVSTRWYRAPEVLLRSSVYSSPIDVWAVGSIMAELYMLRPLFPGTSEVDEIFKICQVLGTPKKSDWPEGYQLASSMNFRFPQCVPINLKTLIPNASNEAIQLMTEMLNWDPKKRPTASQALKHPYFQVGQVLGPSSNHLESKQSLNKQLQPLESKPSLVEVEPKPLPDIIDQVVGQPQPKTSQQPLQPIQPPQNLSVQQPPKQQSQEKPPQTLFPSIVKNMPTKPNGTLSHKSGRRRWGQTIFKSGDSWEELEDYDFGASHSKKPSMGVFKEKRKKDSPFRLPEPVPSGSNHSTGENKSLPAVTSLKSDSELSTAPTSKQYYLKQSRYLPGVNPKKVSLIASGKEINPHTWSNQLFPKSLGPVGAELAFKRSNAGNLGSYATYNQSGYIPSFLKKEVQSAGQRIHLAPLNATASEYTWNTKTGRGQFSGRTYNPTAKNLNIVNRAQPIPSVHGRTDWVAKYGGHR", "experiment": "Selectivity interaction (KinomeScan (DiscoverX)) EUB0001049a MAK", "details": "at 1 µM"}, "[8]": {"target": "T3, Serine/threonine-protein kinase DCLK1 (Homo sapiens) (UniProt O15075)", "T3 sequence (whole entry)": "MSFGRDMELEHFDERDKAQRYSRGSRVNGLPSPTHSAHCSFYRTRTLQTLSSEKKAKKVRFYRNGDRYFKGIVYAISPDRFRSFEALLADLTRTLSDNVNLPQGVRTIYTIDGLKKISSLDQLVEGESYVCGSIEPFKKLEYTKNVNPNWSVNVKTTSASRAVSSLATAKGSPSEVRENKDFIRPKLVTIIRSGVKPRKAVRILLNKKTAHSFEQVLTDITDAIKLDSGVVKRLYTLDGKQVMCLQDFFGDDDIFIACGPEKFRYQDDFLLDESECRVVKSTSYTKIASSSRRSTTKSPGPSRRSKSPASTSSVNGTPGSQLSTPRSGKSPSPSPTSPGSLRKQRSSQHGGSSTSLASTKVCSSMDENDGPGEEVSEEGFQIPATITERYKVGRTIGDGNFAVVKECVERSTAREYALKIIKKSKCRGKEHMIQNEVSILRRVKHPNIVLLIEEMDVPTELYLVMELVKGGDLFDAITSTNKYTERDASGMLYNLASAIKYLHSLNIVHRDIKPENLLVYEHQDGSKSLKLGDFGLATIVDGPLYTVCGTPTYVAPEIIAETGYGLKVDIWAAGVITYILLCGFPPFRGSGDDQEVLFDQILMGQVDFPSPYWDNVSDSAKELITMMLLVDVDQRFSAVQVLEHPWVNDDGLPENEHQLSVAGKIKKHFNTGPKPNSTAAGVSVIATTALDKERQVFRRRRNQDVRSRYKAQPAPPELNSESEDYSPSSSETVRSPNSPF", "experiment": "Selectivity interaction (KinomeScan (DiscoverX)) EUB0000666a DCLK1", "details": "at 10 µM"}, "SRSF protein kinase 1": {"target": "SRSF protein kinase 1 (Homo sapiens, UniProt Q96SB4)", "sequence (Q96SB4 whole entry)": "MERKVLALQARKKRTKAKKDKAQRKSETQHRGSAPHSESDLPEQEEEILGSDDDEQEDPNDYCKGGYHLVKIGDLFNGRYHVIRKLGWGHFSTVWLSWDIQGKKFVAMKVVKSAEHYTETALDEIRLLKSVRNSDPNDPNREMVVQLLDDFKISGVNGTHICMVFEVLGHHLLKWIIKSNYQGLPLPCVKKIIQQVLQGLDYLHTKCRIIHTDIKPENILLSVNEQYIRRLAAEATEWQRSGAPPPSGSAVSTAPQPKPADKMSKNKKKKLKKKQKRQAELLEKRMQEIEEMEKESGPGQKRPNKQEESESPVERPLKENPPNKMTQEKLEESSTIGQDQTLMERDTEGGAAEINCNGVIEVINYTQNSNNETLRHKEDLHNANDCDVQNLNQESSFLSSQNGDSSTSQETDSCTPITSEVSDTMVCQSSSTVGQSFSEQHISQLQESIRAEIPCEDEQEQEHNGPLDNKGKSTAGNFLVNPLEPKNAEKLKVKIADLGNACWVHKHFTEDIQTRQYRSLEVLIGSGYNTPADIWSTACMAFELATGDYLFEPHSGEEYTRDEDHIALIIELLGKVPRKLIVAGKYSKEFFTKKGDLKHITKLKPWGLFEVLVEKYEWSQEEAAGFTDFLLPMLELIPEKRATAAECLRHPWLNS", "experiment": "Selectivity interaction (KinomeScan (DiscoverX)) EUB0000695a SRPK1", "details": "at 100 nM"}}}
{"compound": "Nc1cnc(N2CCc3cc(S(=O)(=O)Nc4c(F)cc(Cl)cc4F)cc(N4CCCC4=O)c32)nc1", "note": "[TP-020n]", "values": [{"measurement": "% of control", "setting": "[1]", "value": 100, "unit": "%"}, {"measurement": "% of control", "setting": "[2]", "value": 89, "unit": "%"}]}
{"compound": "CC(C)(O)[C@H](F)CN1Cc2cc(NC(=O)c3cnn4cccnc34)c(N3CCOCC3)cc2C1=O", "values": [{"measurement": "% of inhibition", "setting": "[3]", "value": 91.4, "unit": "%"}]}
{"compound": "CC[C@@H]1[C@H](F)C(=O)N[C@@H]1COc1nccc2cc(C(N)=O)c(OC)cc12", "note": "[ZIMLOVISERTIB]", "values": [{"measurement": "% of inhibition", "setting": "[4]", "value": -21.8, "unit": "%"}]}
{"compound": "COc1cc(N(C)c2ccnc3ccc(C(F)(F)F)cc23)cc(OC)c1OC", "values": [{"measurement": "% binding", "setting": "[5]", "value": 52, "unit": "%"}]}
{"compound": "COc1cc(Nc2nc(C)cc(-c3cnn4nc(OC)ccc34)n2)cc(C(F)(F)F)c1", "values": [{"measurement": "% of control", "setting": "[6]", "value": 83, "unit": "%"}, {"measurement": "% of control", "setting": "[7]", "value": 84, "unit": "%"}]}
{"compound": "O=C(NOC[C@H](O)CO)c1ccc(F)c(F)c1Nc1ccc(I)cc1F", "values": [{"measurement": "% of control", "setting": "[8]", "value": 100, "unit": "%"}]}
{"compound": "Cc1cc(F)c(C(=O)Nc2cccc(-c3nncn3C(C)C)n2)cc1-n1cnc(C2CC2)c1", "values": [{"measurement": "% of control", "setting": "SRSF protein kinase 1", "value": 91, "unit": "%"}]}
